Key:
Type in all cases: in vivo, rhesus macaques (Macaca mulatta)
[1] = system: H3 and H4 histone acetylation in peripheral CD4+ and CD8+ T cells; test: Histone acetylation assay (flow cytometry); settings: 7 mg/m^2 4-h IV infusion
Protocol: The efficacy of RMD treatment was assessed by monitoring histone acetylation of frozen PBMCs: at the baseline, 6 h postinfusion, and 1, 2, and 5 days postinfusion, using a flow-cytometrical method, as described ([41]). Briefly, separated PBMCs were stained for surface markers for 20 min with: CD3-APC-Cy7 (SP34-2), CD4-V500 (L200), CD8-PE (SK1), CD14-BV570 (M5E2) (BioLegend, San Diego, CA), CD28-PE-CF594 (CD28.2), CD69-BV421 (FN50), CD95-PE-Cy5 (DX2), PD-1-PE-Cy7 (EH12.2H7) (BioLegend); all antibodies were from BD Biosciences, unless otherwise stated. PBMCs were then lysed with PhosFlow Lyse/Fix buffer (BD Biosciences) for 30 min and permeabilized with Perm Buffer [0.4% Triton X-100 in PBA (Sigma)] for 10 min, followed by washing. Permeabilized PBMCs were stained with the following antibodies for intracellular markers: Ac-H4 (3HH4-2C2) (Active Motif, Carlsbad, CA, USA) and Ki-67-Alexa Flour 647 (BD Biosciences). Ac-H4 recognizes motifs on histones H3 and H4 and was conjugated to FITC using Zenon reagent kit (Invitrogen, Carlsbad, CA). Stained PBMCs were then washed, fixed with BD Stabilizing Fixative (BD Biosciences), and acquired with a LSR-II flow cytometer. Data were analyzed with FlowJo software.

[2] = system: circulating lymphocytes, T cells, B cells and neutrophils; test: Immune cell counts in blood (CBC, TruCount flow cytometry); settings: for CD8+ T cells in blood: baseline 1,047; for CD4+ T cells in blood: baseline 2,518; for total circulating lymphocytes: baseline 5,050, 3 RMs, 7 mg/m^2
Protocol: Figure 1 illustrates the sampling schedule. […] Intestinal biopsies were taken at 13 days prior to infusion; intestinal resections were taken at 30 days before infusion and 1 day postinfusion; LNs were collected at 30 and 13 days prior to infusion, 6 h postinfusion, and 1 and 7 days postinfusion. The samples collected during the first round of RMD treatment were used for immune population dynamics and functionality.
Complete blood counts (CBCs) and serum chemistries were monitored in the collected samples from both the RMD-treated RMs and control RMs by either the Marshfield Laboratories (Cleveland, OH), IDEXX Reference Laboratories (IDEXX Laboratories, Inc, Westbrook, ME) or in house, using a ProCyte Hematology Analyzer (IDEXX Laboratories, Inc).
Whole blood was stained to monitor the impact of RMD on the immune cell populations. TruCount was used to determine absolute counts of CD3^+, CD4^+, CD8^+ T cells and CD20^+ B cells as described ([51]–[53]). Fifty microliters of whole blood were stained with antibodies against CD3-V450, CD4-APC, CD20-APC-H7, and CD45-PerCP in TruCount tubes (BD Biosciences, Franklin Lakes, NJ, USA) with a set number of fluorescent beads as internal standards. CD8^+ T cell counts were assessed through the ratio of CD8^+ to CD3^+ T cells. Whole blood was also stained with combinations of the following fluorescently labeled antibodies: CD3-V450 (SP34-2), CD4-APC (L200), CD8-PE-CF594 (RPA-T8), CD14-PE-Cy7 (M5E2), CD38-FITC (AT-1) (Stemcell, Vancouver, BC, CA), CD20-APC-H7 (2H7), CD69-APC-Cy7 (FN50), CD95-FITC (DX2), CCR5-PE (3A9), Annexin V-FITC, HLA-DR-PE-Cy7 (L243), NKG2A-PE (Z199) (Beckman Coulter, Pasadena, CA), Strepavidin-Alexa Fluor 750 (Life Technologies, Carlsbad, CA), Biotin-CCR7 (eBioscience, San Diego, CA), LIVE/DEAD Fixable Blue Dead Cell Stain Kit (Thermo Fisher Scientific); all antibodies were from BD Biosciences unless otherwise noted. For Ki-67-PE (B56) intracellular staining, cells were fixed and permeabilized prior to Ki-67 staining. Data were acquired with a LSR-II flow cytometer (BD Biosciences) or Fortessa flow cytometer (BD Biosciences) and analyzed with FlowJo software 10.7.0 (Treestar, Ashland, OR), as described ([51], [54]).

CD8+ T cells = test: T lymphocyte functional assay (PMA/ionomycin stimulation, flow cytometry)
Protocol: To simplify the complication of RMD treatment and SIV infection, it was vital to assess the impact of RMD administration on the T-cell function, particularly on the cellular immune responses on uninfected RMs. Due to the incapability to assess the SIV-specific immune responses, the overall cytotoxic capacity of lymphocytes in the blood was assessed as follows. Frozen PBMCs were thawed, counted, and were either unstimulated or stimulated with PMA and ionomycin (Sigma, St. Louis, MO). PBMCs were stained with the following antibodies: CD3-V500 (SP34-2), CD4-APC (L200), CD8-PE-CF594 (RPA-T8), CD107a-APC-Cy7 (H4A3), Granzyme A-PerCP/Cy5.5 (CB9) (BioLegend), Granzyme B-Alexa Flour 700 (GB11), Granzyme K-FITC (GM6C3) (Santa Cruz Biotechnology, Dallas, TX), IFN-γ-FITC (4S.B3), and Perforin-PE (B-D48) (BioLegend); antibodies were from BD Biosciences unless otherwise noted. Stained PBMCs were then acquired on an LSR-II flow cytometer. Data were analyzed using FlowJo software (Treestar).
Previous studies reported conflicting data as to whether the functionality of CTLs is diminished by RMD administration ([41], [64]). Therefore, we performed functional assays on lymphocytes collected from superficial and mesenteric LNs and intestinal resections, focusing on the overall expression of the surrogate killing marker CD107a, along with granzymes A, B, and K, IFN-γ, and perforin with PMA and ionomycin stimulation ( Figure 11 ).

[3] = intestine, 2 days postinfusion, pretreatment 2%
[4] = mesenteric LN, 1 day postinfusion, pretreatment 2%
[5] = superficial LN, 2 days postinfusion, pretreatment 1%
[6] = superficial LN, 2 days postinfusion, pretreatment 4%

C/C=C1\NC(=O)[C@H]2CSSCC/C=C/[C@H](CC(=O)N[C@H](C(C)C)C(=O)N2)OC(=O)[C@H](C(C)C)NC1=O [RMD, romidepsin]
time of return of histone acetylation to near baseline level ([1]; CD4+ and CD8+ T cells, all RMs): ≤ 5 days postinfusion
time of peak H3/H4 histone acetylation in blood CD4+ and CD8+ T cells ([1]; third RM (RM33)): 1 day postinfusion
time of peak H3/H4 histone acetylation in blood CD4+ and CD8+ T cells ([1]; two of three RMs): 6 h postinfusion
CD8+ T cells in blood ([2]; 12 h postinfusion, p < 0.05): 204 cells/μl
CD4+ T cells in blood ([2]; 12 h postinfusion, p < 0.05): 402 cells/μl
neutrophils in blood ([2]; 12 h postinfusion, baseline 3,273, normal 6.2 ± 2.4 × 10^3, not significant): 14,287 cells/μl
total circulating lymphocytes ([2]; 12 h postinfusion, p < 0.05): 1,463 cells/μl
CD8+ T cells in blood ([2]; 1 day postinfusion, p < 0.05): 178 cells/μl
CD4+ T cells in blood ([2]; 1 day postinfusion, p < 0.05): 496 cells/µl
neutrophils in blood ([2]; 1 day postinfusion, baseline 3,273): 9,123 cell/µl
CD8+ T cells in blood ([2]; 2 days postinfusion, p < 0.05): 204 cells/μl
CD4+ T cells in blood ([2]; 2 days postinfusion, p < 0.05): 366 cells/μl
total circulating lymphocytes ([2]; 2 days postinfusion, p < 0.05): 1,753 cells/μl
CD4+ T cells in blood ([2]; 5 days postinfusion (recovery)): 1,305 cells/μl
CD8+ T cells in blood ([2]; 5 days postinfusion): 634 cells/μl
neutrophils in blood ([2]; 5 days postinfusion, baseline 3,273): 2,427 cells/μl
CD8+ T cells in blood ([2]; 7 days postinfusion (near full recovery)): 741 cells/μl
B cells (CD3−CD20+) in blood ([2]; RMD treated RMs, no change in saline control group): declined
Granzyme K expression in CD8+ T cells (CD8+ T cells; intestine, 2 days postinfusion, pretreatment 1%): < 1%
CD107a expression in CD8+ T cells (CD8+ T cells; [3]): 1%
Granzyme A expression in CD8+ T cells (CD8+ T cells; [3]): < 1%
Perforin expression in CD8+ T cells (CD8+ T cells; intestines, 2 days postinfusion, pretreatment 1%): < 1%
IFN-γ expression in CD8+ T cells (CD8+ T cells; intestines, 2 days postinfusion, pretreatment 2%): 1%
Granzyme B expression in CD8+ T cells (CD8+ T cells; intestines, 2 days postinfusion, pretreatment 11%): 3%
CD107a expression in CD8+ T cells (CD8+ T cells; mesenteric LN, 1 day postinfusion, pretreatment 1%): < 1%
Granzyme K expression in CD8+ T cells (CD8+ T cells; [4]): < 1%
Perforin expression in CD8+ T cells (CD8+ T cells; [4]): < 1%
IFN-γ expression in CD8+ T cells (CD8+ T cells; mesenteric LN, 1 day postinfusion, pretreatment 5%): 3%
Granzyme B expression in CD8+ T cells (CD8+ T cells; mesenteric LN, 2 days postinfusion, pretreatment 5%): 2%
Granzyme A expression in CD8+ T cells (CD8+ T cells; mesenteric LNs, 1 day postinfusion, pretreatment 1%): < 1%
CD107a expression in CD8+ T cells (CD8+ T cells; [5]): < 1%
Granzyme K expression in CD8+ T cells (CD8+ T cells; [5]): < 1%
Perforin expression in CD8+ T cells (CD8+ T cells; [5]): < 1%
Granzyme B expression in CD8+ T cells (CD8+ T cells; [6]): 1%
IFN-γ expression in CD8+ T cells (CD8+ T cells; [6]): 1%
Granzyme A expression in CD8+ T cells (CD8+ T cells; superficial LNs, 2 days postinfusion, pretreatment 1%): < 1%

Reference: paper PMC7759686, “Pharmacokinetics and Immunological Effects of Romidepsin in Rhesus Macaques” (Frontiers in Immunology, 2020)
